Laboratory results taken from patent US20220000952A1, “METHOD PREPARING ANTRODIA CINNAMOMEA EXTRACT AND ANTRODIA CINNAMOMEA COMPOSITION, AND PHARMACEUTICAL COMPOSITION” (priority 2018, published 2022).

Tested on: bone marrow inhibition of chemotherapeutic drug Cisplatin
Test: Efficacy test for improving the bone marrow inhibition of chemotherapeutic drug cisplatin in C57BL/6 immune normal mice
Type: in vivo
Details: cisplatin alone 20 mg/kg i.p. day 1
Experimental: The animals used in this study were C57B116 mice which were commercially available from Taiwan Experimental Animal Centers and six weeks old. The feeding temperature was controlled to be 25±2° C., the illumination time was 08: 00-20: 00, sufficient feed and drinking water were provided daily, and the padding was replaced twice a week.
The cisplatin (cis, 20 mg/kg) was administered by intraperitoneal injection on the first day. The Antrodia cinnamomea composition (400 mg/kg) was administered in a tube-teed manner on the 1st to 5th day, and the time of tube feeding on the first day was 4 hours after the chemotherapeutic drug was administered. The animal groups were the control group,Cis and Antrodia cinnamomea compositions (AC) respectively, with 6 mice in each group and 18 mice in 3 groups.
The experimental animals were sacrificed in a CO2 manner on the sixth day, the thigh bones of the mice were surgically removed, both ends of the bones were cut, bone marrow cells were flushed out, and after centrifugation and washing, the cells were added to MethoCult M3334 medium or MethoCult M3234 medium, and allowed to stand in a humidified incubator containing 5% CO2 at 37° C. and cultured, the former was cultured for 48 hours to observe by microscope and calculate the number of CFU-E (Colony-forming unit-erythroid) colonies, and the latter was cultured for 7 days to observe by microscope and calculate the number of CFU-GM(Colony-forming unit-granulocyte, macrophage) colonies. The colony numbers of CFU-E and CFU-GM were counted by observation in the whole field of view.
Before the experimental animals were sacrificed, the whole blood was collected in a cheek blood collection manner, and anticoagulant whole blood was used for complete blood count (CBC) to determine the number of peripheral white blood cells.
One-way analysis of variance (One-Way ANOVA) was used for data analysis. When the analysis result reached a significant level, Fisher LSD was used for subsequent comparison.

## N.N.[Cl][Pt][Cl] [cisplatin]
FIG. 5
  number of white blood cells (peripheral blood): can reduce the number of white blood cells
FIG. 6
  number of CFU-GM (myeloid leukocyte precursor cells): inhibits the number of myeloid leukocyte precursor cells CFU-GM
FIG. 7
  number of CFU-E (bone marrow red blood cell precursor cells): can inhibit the number of bone marrow red blood cell precursor cells CFU-E
